What all share (format): in vivo
The subject of experiment [1] is Echinochloa crus-gali (ECHCG). The experiment can be described thus: Pre-emergence herbicidal glasshouse test. The following applies: 250 g/ha, sprayed after one day cultivation, evaluated after 13 days. How it is done:
(§1) Seeds of a variety of test species are sown in standard soil in pots Amaranthus pa/meri (AMAPA), Amaranthus retoflexus (AMARE), Echinochloa crus-gali (ECHCG), Ipomoea hederacea (IPOHE), Setaria faberi (SETFA). After cultivation for one day (pre-emergence) or after 8 days cultivation (post-emergence) under controlled conditions in a glasshouse (at 24/16° C., day/night; 14 hours light; 65% humidity), the plants are sprayed with an aqueous spray solution derived from the formulation of the technical active ingredient in acetone/water (50:50) solution containing 0.5% Tween 20 (polyoxyethelyene sorbitan monolaurate, CAS RN 9005-64-5). Compounds are applied at 250 g/ha unless otherwise stated. The test plants are then grown in a glasshouse under controlled conditions in a glasshouse (at 24/16° C., day/night; 14 hours light; 65% humidity) and watered twice daily. After 13 days for pre and post-emergence, the test is evaluated for the percentage damage caused to the plant. The biological activities are shown in the following table on a five-point scale (5=81-100%; 4=61-80%; 3=41-60%; 2=21-40%; 1=0-20%).

In experiment [2] the test system is Amaranthus pa/meri (AMAPA). The experiment can be described thus: Pre-emergence herbicidal glasshouse test. The following applies: 250 g/ha, sprayed after one day cultivation, evaluated after 13 days. How it is done: as §1
Experiment [3] concerns Amaranthus retoflexus (AMARE). The experiment can be described thus: Pre-emergence herbicidal glasshouse test. The conditions noted are these: 250 g/ha, sprayed after one day cultivation, evaluated after 13 days. Here is the method:
as §1

In experiment [4] the test system is Ipomoea hederacea (IPOHE). The experiment can be described thus: Pre-emergence herbicidal glasshouse test. The following applies: 250 g/ha, sprayed after one day cultivation, evaluated after 13 days. Here is the method:
as §1

Experiment [5] concerns Setaria faberi (SETFA). The experiment can be described thus: Pre-emergence herbicidal glasshouse test. The following applies: 250 g/ha, sprayed after one day cultivation, evaluated after 13 days. Here is the method: as §1
The test system of experiment [6] is Echinochloa crus-gali (ECHCG). The experiment can be described thus: Post-emergence herbicidal glasshouse test. The following applies: 250 g/ha, sprayed after 8 days cultivation, evaluated after 13 days. Here is the method: as §1
The test system of experiment [7] is Amaranthus pa/meri (AMAPA). The experiment can be described thus: Post-emergence herbicidal glasshouse test. The conditions noted are these: 250 g/ha, sprayed after 8 days cultivation, evaluated after 13 days. Here is the method:
as §1

The subject of experiment [8] is Amaranthus retoflexus (AMARE). The experiment can be described thus: Post-emergence herbicidal glasshouse test. The following applies: 250 g/ha, sprayed after 8 days cultivation, evaluated after 13 days. How it is done: as §1
Experiment [9] deals with Ipomoea hederacea (IPOHE). The experiment can be described thus: Post-emergence herbicidal glasshouse test. The conditions noted are these: 250 g/ha, sprayed after 8 days cultivation, evaluated after 13 days. Here is the method: as §1
In experiment [10] the test system is Setaria faberi (SETFA). The experiment can be described thus: Post-emergence herbicidal glasshouse test. The conditions noted are these: 250 g/ha, sprayed after 8 days cultivation, evaluated after 13 days. How it is done:
as §1

Results on eleven molecules are retold here after patent publication US20260035359A1, “HERBICIDAL IMIDAZOLE COMPOUNDS” (SYNGENTA CROP PROTECTION AG, priority 2022, published 2026).

In the case of `FC(F)c1nc(C(F)(F)F)cn1Cc1ncc(Cl)cn1` [Compound 1.070, 5-chloro-2-[[2-(difluoromethyl)-4-(trifluoromethyl)imidazol-1-yl]methyl]pyrimidine], the “percentage damage caused to the plant, ECHCG” value in [1] and in experiment [6] was 1 (1=0-20%) throughout. Besides, the figures for the “percentage damage caused to the plant, AMAPA” value in experiment [2] and in experiment [7] were 5 (5=81-100%) and 1 (1=0-20%), respectively. For the same molecule, the “percentage damage caused to the plant, AMARE” value in [3] is 5 (5=81-100%); in [8], 1 (1=0-20%). Besides, the “percentage damage caused to the plant, IPOHE” value in experiment [4] is reported as 3 (3=41-60%); in experiment [9] it was 2 (2=21-40%). The “percentage damage caused to the plant, SETFA” value in the experiment with Setaria faberi (SETFA) [5] and in the experiment with Setaria faberi (SETFA) [10] was 1 (1=0-20%) each time.
Turning to `CC(C)Cc1nc(C(F)(F)F)cn1Cc1ncc(Cl)cn1` [Compound 1.021], the “percentage damage caused to the plant, ECHCG” value in experiment [1] and in experiment [6] was 1 (1=0-20%) throughout. Besides, the “percentage damage caused to the plant, AMAPA” value is on record as 5 (5=81-100%) in experiment [2] and 3 (3=41-60%) in experiment [7]. Besides, the “percentage damage caused to the plant, AMARE” value in experiment [3] and in experiment [8] was 3 (3=41-60%) throughout. In addition, the “percentage damage caused to the plant, IPOHE” value in experiment [4] is listed as 4 (4=61-80%); in experiment [9], 3 (3=41-60%). The “percentage damage caused to the plant, SETFA” value in the experiment on Setaria faberi (SETFA) [5] and in the experiment with Setaria faberi (SETFA) [10] was 1 (1=0-20%) in each case.
`COCc1nc(C(F)(F)F)cn1Cc1ncc(Cl)cn1` [Compound 1.023]: the “percentage damage caused to the plant, ECHCG” value in experiment [1] and in experiment [6] was 1 (1=0-20%) in each case. Besides, the “percentage damage caused to the plant, AMAPA” value in [2] is 2 (2=21-40%); in experiment [7], 1 (1=0-20%). The “percentage damage caused to the plant, AMARE” value in experiment [3] was 2 (2=21-40%); in experiment [8] it was 1 (1=0-20%). Besides, the “percentage damage caused to the plant, IPOHE” value in [4] was 1 (1=0-20%); in experiment [9] it was 2 (2=21-40%). For the same molecule, the “percentage damage caused to the plant, SETFA” value with Setaria faberi (SETFA) [5] and in the experiment with Setaria faberi (SETFA) [10] was 1 (1=0-20%) throughout.
For `CSCCc1nc(C(F)(F)F)cn1Cc1ncc(Cl)cn1` [Compound 1.083], the “percentage damage caused to the plant, ECHCG” value in experiment [1] and in [6] was 1 (1=0-20%) each time. Also, the “percentage damage caused to the plant, AMAPA” value in experiment [2] and in experiment [7] was 3 (3=41-60%) in each case. The “percentage damage caused to the plant, AMARE” value in experiment [3] and in experiment [8] was 4 (4=61-80%) each time. In addition, the “percentage damage caused to the plant, IPOHE” value is reported as 5 (5=81-100%) in experiment [4] and 4 (4=61-80%) in experiment [9]. For the same molecule, the “percentage damage caused to the plant, SETFA” value in the experiment with Setaria faberi (SETFA) [5] and in the experiment with Setaria faberi (SETFA) [10] was 1 (1=0-20%) in each case.
`FC(F)COCc1nc(C(F)(F)F)cn1Cc1ncc(Cl)cn1` [Compound 1.022]: the “percentage damage caused to the plant, ECHCG” value in experiment [1] and in [6] was 1 (1=0-20%) throughout. Also, the figures for the “percentage damage caused to the plant, AMAPA” value in [2] and in experiment [7] were 2 (2=21-40%) and 3 (3=41-60%), respectively. Further, the “percentage damage caused to the plant, AMARE” value in experiment [3] and in experiment [8] was 3 (3=41-60%) throughout. Moreover, the “percentage damage caused to the plant, IPOHE” value in [4] is 4 (4=61-80%); in experiment [9], 3 (3=41-60%). Further, the “percentage damage caused to the plant, SETFA” value in the experiment on Setaria faberi (SETFA) [5] and with Setaria faberi (SETFA) [10] was 1 (1=0-20%) each time.
For `FC(F)c1ccn(CCc2nc(C(F)(F)F)cn2Cc2ncc(Cl)cn2)n1` [Compound 1.032], the “percentage damage caused to the plant, ECHCG” value was 5 (5=81-100%) in [1] and 3 (3=41-60%) in [6]. The “percentage damage caused to the plant, AMAPA” value in experiment [2] is reported as 5 (5=81-100%); in [7] it was 4 (4=61-80%). The “percentage damage caused to the plant, AMARE” value in [3] and in [8] was 5 (5=81-100%) in each case. The “percentage damage caused to the plant, IPOHE” value was 5 (5=81-100%) in [4] and 4 (4=61-80%) in [9]. For the same molecule, the “percentage damage caused to the plant, SETFA” value was 5 (5=81-100%) in the experiment on Setaria faberi (SETFA) [5] and 3 (3=41-60%) in the experiment on Setaria faberi (SETFA) [10].
With `N#Cc1cn(Cc2ncc(Cl)cn2)c(CC2CCOC2)n1` (stereo not drawn) [Compound 1.073, 1-[(5-chloropyrimidin-2-yl)methyl]-2-(tetrahydrofuran-3-ylmethyl)imidazole-4-carbonitrile], the “percentage damage caused to the plant, ECHCG” value in experiment [1] and in experiment [6] was 1 (1=0-20%) in each case. The “percentage damage caused to the plant, AMAPA” value in [2] and in experiment [7] was 2 (2=21-40%) in each case. The “percentage damage caused to the plant, AMARE” value in experiment [3] and in [8] was 2 (2=21-40%) throughout. In addition, the figures for the “percentage damage caused to the plant, IPOHE” value in experiment [4] and in experiment [9] were 2 (2=21-40%) and 3 (3=41-60%), respectively. Moreover, the “percentage damage caused to the plant, SETFA” value with Setaria faberi (SETFA) [5] and with Setaria faberi (SETFA) [10] was 1 (1=0-20%) in each case.
Turning to `CC(C)(C#N)Cc1nc(C(F)(F)F)cn1Cc1ncc(Cl)cn1` [Compound 1.061], the “percentage damage caused to the plant, ECHCG” value in experiment [1] and in [6] was 1 (1=0-20%) throughout. The “percentage damage caused to the plant, AMAPA” value in experiment [2] and in experiment [7] was 3 (3=41-60%) each time. In addition, the “percentage damage caused to the plant, AMARE” value in experiment [3] was 3 (3=41-60%); in experiment [8] it was 4 (4=61-80%). The “percentage damage caused to the plant, IPOHE” value in [4] and in experiment [9] was 4 (4=61-80%) each time. For the same molecule, the “percentage damage caused to the plant, SETFA” value in the experiment with Setaria faberi (SETFA) [5] and in the experiment with Setaria faberi (SETFA) [10] was 1 (1=0-20%) each time.
For the molecule `CC(F)(F)CCc1nc(C(F)(F)F)cn1Cc1ncc(Cl)cn1` [Compound 1.085], the “percentage damage caused to the plant, ECHCG” value in experiment [1] is reported as 5 (5=81-100%); in [6] it was 4 (4=61-80%). The “percentage damage caused to the plant, AMAPA” value in experiment [2] and in experiment [7] was 5 (5=81-100%) in each case. Further, the “percentage damage caused to the plant, AMARE” value in experiment [3] and in [8] was 5 (5=81-100%) throughout. Besides, the “percentage damage caused to the plant, IPOHE” value is on record as 5 (5=81-100%) in [4] and 4 (4=61-80%) in experiment [9]. Further, the “percentage damage caused to the plant, SETFA” value in the experiment on Setaria faberi (SETFA) [5] and with Setaria faberi (SETFA) [10] was 5 (5=81-100%) each time.
In the case of `FC(F)(F)c1cn(Cc2ncc(Cl)cn2)c(CCn2ccc(C(F)(F)F)n2)n1` [Compound 1.033], the “percentage damage caused to the plant, ECHCG” value in experiment [1] and in experiment [6] was 3 (3=41-60%) in each case. The “percentage damage caused to the plant, AMAPA” value in experiment [2] is 5 (5=81-100%); in experiment [7], 3 (3=41-60%). Moreover, the “percentage damage caused to the plant, AMARE” value is listed as 5 (5=81-100%) in [3] and 4 (4=61-80%) in experiment [8]. For the same molecule, the “percentage damage caused to the plant, IPOHE” value is 5 (5=81-100%) in experiment [4] and 4 (4=61-80%) in experiment [9]. In addition, the “percentage damage caused to the plant, SETFA” value in the experiment on Setaria faberi (SETFA) [5] is given as 4 (4=61-80%); in the experiment on Setaria faberi (SETFA) [10], 3 (3=41-60%).
As to `CCCCc1nc(C(F)(F)F)cn1Cc1ccc(Cl)cn1` [Compound 1.057], the “percentage damage caused to the plant, ECHCG” value in experiment [1] and in [6] was 1 (1=0-20%) in each case. Also, the “percentage damage caused to the plant, AMAPA” value is 5 (5=81-100%) in experiment [2] and 2 (2=21-40%) in [7]. For the same molecule, the “percentage damage caused to the plant, AMARE” value in experiment [3] and in experiment [8] was 3 (3=41-60%) in each case. Besides, the “percentage damage caused to the plant, IPOHE” value is 1 (1=0-20%) in experiment [4] and 2 (2=21-40%) in experiment [9].
